Laboratory results published in patent publication US6696600B2, “L-DOPA ethyl ester salts and uses thereof” (priority 2001, dated 2004).

Assay: Hygroscopicity test: weight gain of solid sample in humidity chamber at RH=80%
Type: physicochemical
Conditions: RH = 80%
From the text: There are many methods of quantitative evaluation of hygroscopicity of solid products without measuring the hygroscopic point. The most widely used method is based on measuring the weight gain of a solid sample in a humidity chamber. […] This method was used for screening the hygroscopicity of several LDEE salts. It also provides a comparison of the hygroscopic properties of different solids by comparison of water absorption rates under the same conditions.

water absorption at RH=80% (in words)	Compound	Color stability at RH = 80% [h]	Mean water absorption rate at RH = 80% [mol/kg/h]
–	CCOC(=O)[C@@H](N)Cc1ccc(O)c(O)c1.O=C(O)[C@@H](O)c1ccccc1 [Example 15, LDEE S(+)Mandelate]	>24	0.092
–	CCOC(=O)C(N)Cc1ccc(O)c(O)c1.O=C(O)C(O)c1ccccc1 (stereo not drawn) [Example 17, LDEE R(−)Mandelate]	>24	0.125
–	CCOC(=O)C(N)Cc1ccc(O)c(O)c1.O=C(O)C(O)c1ccccc1 (stereo not drawn) [R(−)Mandelate from chloroform, LDEE R(−)Mandelate]	>24	–
–	LDEE Ascorbate [Example 14]	0 to 5	0.162
–	LDEE Citrate [Example 12]	20	0.146
did not absorb water	LDEE Myristate [Example 27]	>48	0.002

Same assay, conditions: RH = 80%, 24 hrs

Compound	Material appearance after 24 hrs at RH = 80%	Weight gain during 24 hrs at RH = 80%,% [%]
CCOC(=O)[C@@H](N)Cc1ccc(O)c(O)c1.O=C(O)[C@@H](O)c1ccccc1 [Example 15, LDEE S(+)Mandelate]	Semi-solid melt	4.0
CCOC(=O)C(N)Cc1ccc(O)c(O)c1.O=C(O)C(O)c1ccccc1 (stereo not drawn) [Example 17, LDEE R(−)Mandelate]	Semi-solid melt	5.4
CCOC(=O)C(N)Cc1ccc(O)c(O)c1.O=C(O)C(O)c1ccccc1 (stereo not drawn) [R(−)Mandelate from chloroform, LDEE R(−)Mandelate]	Semi-solid melt	–
LDEE Ascorbate [Example 14]	Red semi-solid melt	7.0
LDEE Citrate [Example 12]	Semi-solid melt	6.3
LDEE Myristate [Example 27]	White flowable powder	0.11

Same assay, conditions: RH=80% screening

Compound	hygroscopicity (in words)
CCOC(=O)[C@@H](N)Cc1ccc(O)c(O)c1.O=C(O)[C@@H](O)c1ccccc1 [Example 15, LDEE S(+)Mandelate]	hygroscopic
CCOC(=O)C(N)Cc1ccc(O)c(O)c1.O=C(O)C(O)c1ccccc1 (stereo not drawn) [Example 17, LDEE R(−)Mandelate]	hygroscopic
LDEE Ascorbate [Example 14]	hygroscopic
LDEE Citrate [Example 12]	hygroscopic
LDEE Myristate [Example 27]	non-hygroscopic

Same assay, conditions: RH=80%, T=20±2° C., during 24 hrs

Compound	weight gain in hygroscopicity test [%]
CCOC(=O)[C@@H](N)Cc1ccc(O)c(O)c1.O=C(O)[C@@H](O)c1ccccc1 [Example 15, LDEE S(+)Mandelate]	4.02
CCOC(=O)C(N)Cc1ccc(O)c(O)c1.O=C(O)C(O)c1ccccc1 (stereo not drawn) [Example 17, LDEE R(−)Mandelate]	5.4
LDEE Ascorbate [Example 14]	7.04
LDEE Citrate [Example 12]	6.3
LDEE Myristate [Example 27]	0.11

Same assay, conditions: RH=80%, about 24 hrs

appearance after exposure in a humidity chamber	Compound
white flowable powder	LDEE Myristate [Example 27]

Assay: pKa and delta pKa (pKa LDEE − pKa acid)
Type: physicochemical
Conditions: not given
From the text: Preparation and selection of salts that have different physical properties are detailed in the literature. […]. PKa of LDEE free base is known to be 7.24 [8]. […]. This fact is illustrated in Example 1 below, in which the crystallization of LDEE palmitate was attempted. After dissolution of LDEE base and palmitic acid in absolute alcohol, the solution was cooled, and instead of forming a new salt, pure palmitic acid was crystallized out, and no solid crystalline salt was formed. […]

delta pKa pKaLDEE − pKaacid (first value)	Compound	delta pKa pKaLDEE − pKaacid (second value)	delta pKa pKaLDEE − pKaacid (third value)
3.14	LDEE Ascorbate [Example 14]	–	–
˜2.4	LDEE Myristate [Example 27]	–	–
˜2.4	LDEE Oleate [Example 26]	–	–
2.4	LDEE Palmitate [Example 20]	–	–
˜2.4	Stearate	–	–

Compound	delta pKa pKaLDEE − pKaacid (first value)	delta pKa pKaLDEE − pKaacid (second value)	delta pKa pKaLDEE − pKaacid (third value)
CCOC(=O)[C@@H](N)Cc1ccc(O)c(O)c1.O=C(O)CC(O)(CC(=O)O)C(=O)O [Example 13, LDEE Citrate]	4.11	4.28	0.84
CCOC(=O)[C@@H](N)Cc1ccc(O)c(O)c1.O=C(O)[C@@H](O)c1ccccc1 [Example 15, LDEE S(+)Mandelate]	3.4	–	–
CCCCC(=O)O.CCOC(=O)[C@@H](N)Cc1ccc(O)c(O)c1 [Example 18, LDEE Valerate]	˜2.4	–	–

Same assay, conditions: first pKa of the acid

Compound	delta pKa pKaLDEE − pKaacid (first value)
CCOC(=O)[C@@H](N)Cc1ccc(O)c(O)c1.O=C(O)[C@@H](O)c1ccccc1 [Example 16, LDEE S(+)Mandelate]	3.4
CCOC(=O)C(N)Cc1ccc(O)c(O)c1.O=C(O)C(O)c1ccccc1 (stereo not drawn) [Example 17, LDEE R(−)Mandelate]	3.4
LDEE Citrate [Example 12]	4.11

Same assay, conditions: second pKa of the acid

Compound	delta pKa pKaLDEE − pKaacid (second value)
LDEE Citrate [Example 12]	4.28

Same assay, conditions: third pKa of the acid

Compound	delta pKa pKaLDEE − pKaacid (third value)
LDEE Citrate [Example 12]	0.84
